The text below walks through data of publication PMC9780857 (International Journal of Molecular Sciences, 2022).

SMILES strings stand for the structures. pIC50: −log10 of the molar value. Where two headings read alike, the source gives them in different places.

For series [1], the target named is T1, hOCT2 (Homo sapiens, UniProt O15244).
T1 sequence (O15244 1-555): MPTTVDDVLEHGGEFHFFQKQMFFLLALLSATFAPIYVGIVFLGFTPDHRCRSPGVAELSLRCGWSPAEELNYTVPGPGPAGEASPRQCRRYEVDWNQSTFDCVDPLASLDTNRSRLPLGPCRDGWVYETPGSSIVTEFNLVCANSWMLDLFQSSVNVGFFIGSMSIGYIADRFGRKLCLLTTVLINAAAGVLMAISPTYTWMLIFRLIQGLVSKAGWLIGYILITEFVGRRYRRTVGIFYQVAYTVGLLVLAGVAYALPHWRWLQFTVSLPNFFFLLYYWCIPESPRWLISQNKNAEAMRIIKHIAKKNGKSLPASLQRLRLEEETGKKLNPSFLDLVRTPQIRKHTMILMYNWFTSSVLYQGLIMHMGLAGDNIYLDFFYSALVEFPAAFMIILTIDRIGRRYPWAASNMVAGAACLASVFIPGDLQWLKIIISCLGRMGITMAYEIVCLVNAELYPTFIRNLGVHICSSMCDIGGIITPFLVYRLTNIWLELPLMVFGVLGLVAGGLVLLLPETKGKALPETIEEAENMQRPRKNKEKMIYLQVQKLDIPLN
The following applies: read-out: IC50, hOCT2-mediated metformin uptake; cited from earlier work.

In series [2] the target is T1, hOCT2. The experiment in a line: Inhibition of hOCT2-mediated 14C-metformin uptake in transfected HEK293 cells. It counts as cell-based. Further details: expressed in transfected cells; host or cells: HEK293 (stably transfected). The conditions noted are these: HEK293; for inhibition at 10 µM: read-out: Inhibitory Effects (%) hOCT2 10 µM Mean; for inhibition at 100 µM: read-out: Inhibitory Effects (%) hOCT2 100 µM Mean. How it is done:
(§1) The uptake assays were performed as previously described in 24-well plates. […] After incubation, the uptake was stopped by aspirating the reaction mixture and washing the cells three times with 0.4 mL ice-cold PBS buffer. Cells were then solubilized with 0.6 mL of 1 N NaOH, overnight. The whole content of each well (0.6 mL) was transferred to a scintillation vial (Perkin Elmer). The radio-labelled amount was determined by liquid scintillation counting.
(§2) All inhibition experiments were conducted on at least two separate days in triplicate.
(§3) For screening experiments, cis-inhibition was carried out in duplicate by measuring the uptake of the labeled probe substrate in the absence and presence of 10 µM or 100 µM of the respective pesticide or drug. […] Inhibitory effects in percent were calculated from net-uptake. […]

A further series concerns the target T2, mOct2 (Mus musculus, UniProt O70577).
T2 sequence (O70577 1-553): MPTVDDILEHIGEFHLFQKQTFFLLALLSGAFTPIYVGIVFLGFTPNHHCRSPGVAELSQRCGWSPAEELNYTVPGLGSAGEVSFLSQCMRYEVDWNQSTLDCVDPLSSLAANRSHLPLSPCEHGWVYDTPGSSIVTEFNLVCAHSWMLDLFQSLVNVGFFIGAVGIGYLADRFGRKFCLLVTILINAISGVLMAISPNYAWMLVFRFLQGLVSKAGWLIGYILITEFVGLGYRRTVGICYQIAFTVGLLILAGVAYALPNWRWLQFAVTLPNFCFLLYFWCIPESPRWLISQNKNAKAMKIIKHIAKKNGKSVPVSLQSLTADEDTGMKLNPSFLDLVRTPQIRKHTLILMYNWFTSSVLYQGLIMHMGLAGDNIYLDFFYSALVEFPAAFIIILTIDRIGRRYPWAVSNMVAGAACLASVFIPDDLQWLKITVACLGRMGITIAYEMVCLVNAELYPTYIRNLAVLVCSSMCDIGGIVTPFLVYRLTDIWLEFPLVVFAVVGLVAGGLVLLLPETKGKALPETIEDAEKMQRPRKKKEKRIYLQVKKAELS
The experiment in a line: Inhibition of mOct2-mediated 14C-metformin uptake in transfected HEK293 cells. It counts as cell-based. Further details: expressed in transfected cells; host or cells: HEK293 (stably transfected). The conditions noted are these: HEK293; for inhibition at 10 µM: read-out: Inhibitory Effects (%) mOct2 10 µM Mean; for inhibition at 100 µM: read-out: Inhibitory Effects (%) mOct2 100 µM Mean. How it is done:
as §1, §2, §3

In series [3] the target is T1, hOCT2. Further details: expressed in transfected cells; host or cells: HEK293 (stably transfected). The conditions noted are these: read-out: IC50, hOCT2-mediated MPP uptake; cited from earlier work.
The target in series [4] is T1, hOCT2. Set-up: expressed in transfected cells; host or cells: HEK293 (stably transfected); method as in ref 39 (Vermeer et al.). The conditions noted are these: ref 39 (Vermeer et al.); cited from earlier work.
A further series has as its system OCT2. Set-up: method as in PMID 19833842. The conditions noted are these: OCT2-overexpressing HEK293 cells; read-out: IC50, YM155 uptake; cited from earlier work.
[5] abbreviates: 10 µM test compound, 1 µM [14C]metformin, 2 min, negative = stimulation.
The mark [6] stands for this setting: HEK293, 10 µM test compound, 1 µM [14C]metformin, 2 min, negative = stimulation.
Where [7] appears, read: HEK293, 100 µM test compound, 1 µM [14C]metformin, 2 min, negative = stimulation.

As usually defined, the pIC50 is the negative decadic logarithm of the IC50, by convention in mol/L. Turning to `Clc1cccc(Cl)c1N=C1NCCN1` [Clonidine], the figures for the negative-log IC50 (pIC50) at hOCT2 [1] and at hOCT2 [3] were 6.17 and 5.22, respectively. The “Inhibitory Effects (%) hOCT2 10 µM Mean” value at hOCT2 [2] (setting [5]) was found to be 40%. Also, the inhibition at 10 µM is 60% at hOCT2 [2] (setting [6]) and 46% on mOct2 (setting [6]). The inhibition at 100 µM is 76% on hOCT2 [2] (setting [7]) and 89% at mOct2 (setting [7]). Also, the “Inhibitory Effects (%) mOct2 10 µM Mean” value on mOct2 (setting [5]) amounted to 54%.
For the compound `CC(=O)N1CCN(c2ccc(OCC3COC(Cn4ccnc4)(c4ccc(Cl)cc4Cl)O3)cc2)CC1` (stereo not drawn) [Ketoconazole], the figures for the inhibition at 10 µM at hOCT2 [2] (setting [6]) and on mOct2 were 31% and 49%, respectively. For the same compound, the inhibition at 100 µM at hOCT2 [2] (setting [7]) and at mOct2 was 87% throughout. Further, on hOCT2 [4], the pIC50 was 6.05.
Take `CCN(CC)CCNC(=O)c1ccc(N)cc1` [Procainamid]: the pIC50 with OCT2 is 4.04. The figures for the inhibition at 10 µM on hOCT2 [2] and at mOct2 (setting [6]) were -20% and -16%, respectively. Further, the inhibition at 100 µM at hOCT2 [2] was -44%; on mOct2 (setting [7]), -30%.
